Results from US20250059185A1 (Hoffmann-La Roche Inc., priority 2021, published 2025).
Structures can show the parent of a compound that is named as a salt.

Molecular target: MAGL (Homo sapiens (Human), UniProt Q99685)
Experiment: 2-AG assay (MAGL inhibitory activity, hydrolysis of 2-arachidonoylglycerol followed by mass spectrometry)
Type: biochemical
Conditions: 50 pM MAGL protein, 15 min pre-incubation, 30 min incubation at RT
Outline: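 Human MAGL (50 pM final) preincubated 15 min at RT with compound (3-fold dilutions, 12.5 μM to 0.8 pM final) in 50 mM TRIS, 1 mM EDTA, 0.01% Tween-20, 2.5% DMSO. Reaction with […] 2-AG ran 30 min at RT, then was quenched with acetonitrile containing d8-arachidonic acid. Arachidonic acid measured by SPE–triple-quad MS (negative ESI), activity from the arachidonic/d8-arachidonic acid intensity ratio.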

Chain of MAGL (Q99685 whole entry, species assumed): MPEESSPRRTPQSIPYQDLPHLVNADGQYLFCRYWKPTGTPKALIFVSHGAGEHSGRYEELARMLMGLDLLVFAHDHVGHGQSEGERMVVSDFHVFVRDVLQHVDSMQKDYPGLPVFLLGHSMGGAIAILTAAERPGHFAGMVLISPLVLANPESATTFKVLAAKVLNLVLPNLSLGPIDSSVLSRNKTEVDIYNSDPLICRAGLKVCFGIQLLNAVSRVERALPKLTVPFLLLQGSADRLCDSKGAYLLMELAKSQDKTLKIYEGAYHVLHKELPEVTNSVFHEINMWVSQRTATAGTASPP

| Structure (SMILES) | IC50 [nM] |
| --- | --- |
| COc1cccc(C(=O)N2CCc3c(nn(C)c3-c3cc(Cl)cc(CNS(C)(=O)=O)c3)[C@H]2C)c1Cl [Example 2, N-[[3-Chloro-5-[(7R)-6-(2-chloro-3-methoxy-benzoyl)-2,7-dimethyl-5,7-dihydro-4H-pyrazolo[3,4-c]pyridin-3-yl]phenyl]methyl]methanesulfonamide] | 1650 |
| C[C@@H]1c2nn(C)c(-c3cc(F)cc(F)c3)c2CCN1C(=O)c1cc(F)cc(-c2ccc(=O)[nH]c2)c1Cl [Example 30, 5-[2-Chloro-3-[(7R)-3-(3,5-difluorophenyl)-2,7-dimethyl-5,7-dihydro-4H-pyrazolo[3,4-c]pyridine-6-carbonyl]-5-fluoro-phenyl]-1H-pyridin-2-one] | 388 |
| COc1cccc(C(=O)N2CCc3c(nn(C)c3-c3cc(Cl)cc(C4(C(N)=O)CC4)c3)[C@@H]2C)c1Cl [Example 16, 1-[3-Chloro-5-[(7S)-6-(2-chloro-3-methoxy-benzoyl)-2,7-dimethyl-5,7-dihydro-4H-pyrazolo[3,4-c]pyridin-3-yl]phenyl]cyclopropanecarboxamide] | 101 |
| COc1cccc(C(=O)N2CCc3c(nn(C)c3-c3cc(Cl)cc(CNS(C)(=O)=O)c3)[C@@H]2C)c1Cl [Example 1, N-[[3-Chloro-5-[(7S)-6-(2-chloro-3-methoxy-benzoyl)-2,7-dimethyl-5,7-dihydro-4H-pyrazolo[3,4-c]pyridin-3-yl]phenyl]methyl]methanesulfonamide] | 14 |
| C[C@H]1c2nn(C)c(-c3cc(F)cc(F)c3)c2CCN1C(=O)c1cc(F)cc(-c2cc[nH]c(=O)c2)c1Cl [Example 31, 4-[2-Chloro-3-[(7S)-3-(3,5-difluorophenyl)-2,7-dimethyl-5,7-dihydro-4H-pyrazolo[3,4-c]pyridine-6-carbonyl]-5-fluoro-phenyl]-1H-pyridin-2-one] | 3 |
| COc1cccc(C(=O)N2CCc3c(nn(C)c3-c3cccc(O)n3)[C@@H]2C)c1Cl [Example 13, (2-Chloro-3-methoxy-phenyl)-[(7S)-3-(6-hydroxy-2-pyridyl)-2,7-dimethyl-5,7-dihydro-4H-pyrazolo[3,4-c]pyridin-6-yl]methanone] | 622 |
| COc1cccc(C(=O)N2CCc3c(nn(C)c3-c3cncc(S(C)(=O)=O)c3)[C@@H]2C)c1Cl [Example 10, (2-Chloro-3-methoxy-phenyl)-[(7S)-2,7-dimethyl-3-(5-methylsulfonyl-3-pyridyl)-5,7-dihydro-4H-pyrazolo[3,4-c]pyridin-6-yl]methanone] | 4870 |
| C[C@H]1c2nn(C)c(-c3cc(F)cc(F)c3)c2CCN1C(=O)c1cc(F)cc(-c2c[nH]c(C#N)c2)c1Cl [Example 36, 4-[2-Chloro-3-[(7S)-3-(3,5-difluorophenyl)-2,7-dimethyl-5,7-dihydro-4H-pyrazolo[3,4-c]pyridine-6-carbonyl]-5-fluoro-phenyl]-1H-pyrrole-2-carbonitrile] | 17 |
| CC1c2nn(C)c(-c3cc(F)cc(F)c3)c2CCN1C(=O)c1cc(F)cc(N2CC3(C2)CS(=O)(=O)C3)c1Cl (centres unmarked) [Example 19, [2-Chloro-3-(2,2-dioxo-2λ^6-thia-6-azaspiro[3.3]heptan-6-yl)-5-fluoro-phenyl]-[3-(3,5-difluorophenyl)-2,7-dimethyl-5,7-dihydro-4H-pyrazolo[3,4-c]pyridine-6-yl]methanone] | 41 |
| COc1cccc(C(=O)N2CCc3c(nn(C)c3-c3cc(Cl)cc(S(N)(=O)=O)c3)[C@@H]2C)c1Cl [Example 4, 3-Chloro-5-[(7S)-6-(2-chloro-3-methoxy-benzoyl)-2,7-dimethyl-5,7-dihydro-4H-pyrazolo[3,4-c]pyridin-3-yl]benzenesulfonamide] | 27 |
| C[C@H]1c2nn(C)c(-c3cc(F)cc(F)c3)c2CCN1C(=O)c1ncn(-c2cccnc2O)n1 [Example 32, [(7S)-3-(3,5-Difluorophenyl)-2,7-dimethyl-5,7-dihydro-4H-pyrazolo[3,4-c]pyridin-6-yl]-[1-(2-hydroxy-3-pyridyl)-1,2,4-triazol-3-yl]methanone] | 232 |

Other lines, results leading:

| IC50 [nM] | Structure (SMILES) |
| --- | --- |
| 24.6 | C[C@H]1c2nn(C)c(-c3cc(F)c(F)c(F)c3F)c2CCN1C(=O)c1cc(F)cc(-c2c[nH]c(C#N)c2)c1Cl [Example 90, 4-[2-chloro-3-[(7S)-2,7-dimethyl-3-(2,3,4,5-tetrafluorophenyl)-5,7-dihydro-4H-pyrazolo[3,4-c]pyridine-6-carbonyl]-5-fluoro-phenyl]-1H-pyrrole-2-carbonitrile] |
| 275 | C[C@H]1c2nn(C)c(-c3cc(Cl)cc(C4(S(C)(=O)=O)CC4)c3)c2CCN1C(=O)c1ncn(-c2ccc[nH]c2=O)n1 [Example 78, 3-[3-[(7S)-3-[3-chloro-5-(1-methylsulfonylcyclopropyl)phenyl]-2,7-dimethyl-5,7-dihydro-4H-pyrazolo[3,4-c]pyridine-6-carbonyl]-1,2,4-triazol-1-yl]-1H-pyridin-2-one] |
| 127 | C[C@H]1c2nn(C)c(-c3cc(F)cc(F)c3)c2CCN1C(=O)c1ccc(CCC2CNC(=O)C2)cc1Cl (stereo in doubt) [Example 47, 4-[2-[3-Chloro-4-[3-(3,5-difluorophenyl)-2,7-dimethyl-5,7-dihydro-4H-pyrazolo[3,4-c]pyridine-6-carbonyl]phenyl]ethyl]pyrrolidin-2-one] |
| 552 | C[C@@H]1c2nn(C)c(-c3cc(Cl)cc(S(N)(=O)=O)c3)c2CCN1C(=O)c1ncn(-c2ccc[nH]c2=O)n1 [Example 63, 3-Chloro-5-[(7R)-2,7-dimethyl-6-[1-(2-oxo-1H-pyridin-3-yl)-1,2,4-triazole-3-carbonyl]-5,7-dihydro-4H-pyrazolo[3,4-c]pyridin-3-yl]benzenesulfonamide] |
| 714 | C[C@H]1c2nn(C)c(-c3cc(F)cc(F)c3)c2CCN1C(=O)c1ncnn1[C@H]1CCNC1 (single isomer, unassigned) [Example 54, [3-(3,5-Difluorophenyl)-2,7-dimethyl-5,7-dihydro-4H-pyrazolo[3,4-c]pyridin-6-yl]-(2-pyrrolidin-3-yl-1,2,4-triazol-3-yl)methanone; hydrochloride] |
| 371 | C[C@H]1c2nn(C)c(-c3cc(F)cc(F)c3)c2CCN1C(=O)c1cc(Cl)cc(OC[C@H]2CNC(=O)O2)c1Cl (single isomer, unassigned) [Example 109] |
| 240 | COc1cccc(C(=O)N2CCc3c(nn(C)c3-c3cc(CNS(C)(=O)=O)cc(Cl)n3)C2C)c1Cl (centres unmarked) [Example 80, N-[[2-chloro-6-[6-(2-chloro-3-methoxy-benzoyl)-2,7-dimethyl-5,7-dihydro-4H-pyrazolo[3,4-c]pyridin-3-yl]-4-pyridyl]methyl]methanesulfonamide] |
| 2830 | C[C@H]1c2nn(C)c(-c3cncc(C(F)(F)F)n3)c2CCN1C(=O)c1cc(F)cc(N2CC3(C2)CS(=O)(=O)C3)c1Cl [Example 65, [2-chloro-3-(2,2-dioxo-2λ^6-thia-6-azaspiro[3.3]heptan-6-yl)-5-fluoro-phenyl]-[(7S)-2,7-dimethyl-3-[6-(trifluoromethyl)pyrazin-2-yl]-5,7-dihydro-4H-pyrazolo[3,4-c]pyridin-6-yl]methanone] |
| 3 | C[C@H]1c2nn(C)c(-c3cc(F)cc(F)c3)c2CCN1C(=O)c1cc(F)cc(-c2c[nH]c(C#N)c2)c1 [Example 53, 4-[3-[(7S)-3-(3,5-Difluorophenyl)-2,7-dimethyl-5,7-dihydro-4H-pyrazolo[3,4-c]pyridine-6-carbonyl]-5-fluorophenyl]-1H-pyrrole-2-carbonitrile] |
| 3 | COCCOc1cc(Cl)cc(-c2c3c(nn2C)[C@H](C)N(C(=O)c2cccc(OC)c2Cl)CC3)c1 [Example 69, [(7S)-3-[3-chloro-5-(2-methoxyethoxy)phenyl]-2,7-dimethyl-5,7-dihydro-4H-pyrazolo[3,4-c]pyridin-6-yl]-(2-chloro-3-methoxy-phenyl)methanone] |
| 261 | CC1c2nn(C)c(-c3cc(F)cc(F)c3)c2CCN1C(=O)c1ccc(CCC2CNC(=O)C2)cc1Cl (centres unmarked) [Example 44, 4-[2-[3-Chloro-4-[3-(3,5-difluorophenyl)-2,7-dimethyl-5,7-dihydro-4H-pyrazolo[3,4-c]pyridine-6-carbonyl]phenyl]ethyl]pyrrolidin-2-one] |
| 99 | C[C@H]1c2nn(C)c(-c3cc(F)cc(F)c3)c2CCN1C(=O)c1ccc(CCC2CNC(=O)C2)cc1Cl (stereo partly drawn) [Example 45, 4-[2-[3-Chloro-4-[(7S)-3-(3,5-difluorophenyl)-2,7-dimethyl-5,7-dihydro-4H-pyrazolo[3,4-c]pyridine-6-carbonyl]phenyl]ethyl]pyrrolidin-2-one] |
| 1260 | C[C@@H]1c2nn(C)c(-c3cncc(C(F)(F)F)n3)c2CCN1C(=O)c1ncn(-c2ccc[nH]c2=O)n1 [Example 96, 3-[3-[(7R)-2,7-dimethyl-3-[6-(trifluoromethyl)pyrazin-2-yl]-5,7-dihydro-4H-pyrazolo[3,4-c]pyridine-6-carbonyl]-1,2,4-triazol-1-yl]-1H-pyridin-2-one] |
| 1730 | C[C@H]1c2nn(C)c(-c3cc(Cl)cc(C4(NS(C)(=O)=O)CC4)c3)c2CCN1C(=O)c1ncn(-c2cc(Cl)cnc2O)n1 [Example 91, N-[1-[3-chloro-5-[(7S)-6-[1-(5-chloro-2-hydroxy-3-pyridyl)-1,2,4-triazole-3-carbonyl]-2,7-dimethyl-5,7-dihydro-4H-pyrazolo[3,4-c]pyridin-3-yl]phenyl]cyclopropyl]methanesulfonamide] |
| 767 | C[C@@H]1c2nn(C)c(-c3cc(F)cc(F)c3)c2CCN1C(=O)c1cc(F)cc(C2=CC(Cl)C(=O)N=C2)c1Cl (stereo partly drawn) [Example 99, 3-chloro-5-[2-chloro-3-[(7R)-3-(3,5-difluorophenyl)-2,7-dimethyl-5,7-dihydro-4H-pyrazolo[3,4-c]pyridine-6-carbonyl]-5-fluoro-phenyl]-3H-pyridin-2-one] |
